Source: patent US20030232860A1, “Medicine comprising dicyanopyridine derivative” (priority 2000, published 2003)
pIC50: −log10 of the molar value.

Test system: not given
Experiment: not given
Conditions: not given

| melting point [°C] | SMILES |
| --- | --- |
| 168 to 170 | COc1nc(SC)c(C#N)c(-c2ccccc2)c1C#N [Example 371] |
| 301 | N#Cc1c(N)nc(Cl)c(C#N)c1-c1cccs1 [Example 372] |
| 312 | N#Cc1c(N)nc(Br)c(C#N)c1-c1cccs1 [Example 373] |
| 186 to 187 | N#Cc1c(N)nc(OCc2ccccc2)c(C#N)c1-c1cccs1 [Example 378] |
| 208 to 209 | N#Cc1c(N)nc(SCc2ccccc2)c(C#N)c1-c1cccs1 [Example 386] |
| 151 to 153 | COc1nc(NC(=O)COC(C)=O)c(C#N)c(-c2ccccc2F)c1C#N [Example 397, [3,5-dicyano-4-(2-fluorophenyl)-6-methoxypyridin-2-ylcarbamoyl]methyl acetate] |
| 205 to 206 | COc1nc(NC(=O)COc2ccccc2)c(C#N)c(-c2ccccc2F)c1C#N [Example 398, N-[3,5-dicyano-4-(2-fluorophenyl)-6-methoxypyridin-2-yl]-2-phenoxyacetamide] |
| 164 to 166 | COc1nc(NC(=O)COCc2ccccc2)c(C#N)c(-c2ccccc2F)c1C#N [Example 399, 2-benzyloxy-N-[3,5-dicyano-4-(2-fluorophenyl)-6-methoxypyridin-2-yl]acetamide] |
| 168 to 169 | CCC(=O)Nc1nc(OC)c(C#N)c(-c2ccccc2F)c1C#N [Example 401, N-[3,5-dicyano-4-(2-fluorophenyl)-6-methoxypyridin-2-yl]propionamide] |
| 183 to 184 | COc1nc(NC(=O)CCc2ccccc2)c(C#N)c(-c2ccccc2F)c1C#N [Example 402, N-[3,5-dicyano-4-(2-fluorophenyl)-6-methoxypyridin-2-yl]-3-phenylpropionamide] |
| 115 to 116 | COCCC(=O)Nc1nc(OC)c(C#N)c(-c2ccccc2F)c1C#N [Example 404, N-[3,5-dicyano-4-(2-fluorophenyl)-6-methoxypyridin-2-yl]-3-methoxypropionamide] |
| 193 to 194 | COc1nc(NC(=O)C(C)C)c(C#N)c(-c2ccccc2F)c1C#N [Example 405, N-[3,5-dicyano-4-(2-fluorophenyl)-6-methoxypyridin-2-yl]isobutyramide] |
| 162 to 164 | COc1nc(NC(=O)C(C)(C)C)c(C#N)c(-c2ccccc2F)c1C#N [Example 406, N-[3,5-dicyano-4-(2-fluorophenyl)-6-methoxypyridin-2-yl]-2,2-dimethylpropio namide] |
| 139 to 141 | CCCCCC(=O)Nc1nc(OC)c(C#N)c(-c2ccccc2F)c1C#N [Example 407, N-[3,5-dicyano-4-(2-fluorophenyl)-6-methoxypyridin-2-yl]hexanamide] |
| 227 to 230 | COc1nc(NC(=O)c2ccc3ccccc3c2)c(C#N)c(-c2ccccc2F)c1C#N [Example 411, N-[3,5-dicyano-4-(2-fluorophenyl)-6-methoxypyridin-2-yl]naphthalene-2-carbo xamide] |
| 219 to 220 | COc1nc(NC(=O)c2ccccn2)c(C#N)c(-c2ccccc2F)c1C#N [Example 412, N-[3,5-dicyano-4-(2-fluorophenyl)-6-methoxypyridin-2-yl]pyridine-2-carboxamide] |
| 208 to 209 | COc1nc(NC(=O)c2cccs2)c(C#N)c(-c2ccccc2F)c1C#N [Example 414, N-[3,5-dicyano-4-(2-fluorophenyl)-6-methoxypyridin-2-yl]thiophene-2-carboxamide] |
| 222 to 223 | COc1nc(NC(=O)c2ccco2)c(C#N)c(-c2ccccc2F)c1C#N [Example 415, N-[3,5-dicyano-4-(2-fluorophenyl)-6-methoxypyridin-2-yl]furan-2-carboxamide] |
| 206 to 208 | COc1nc(NC(=O)Cc2ccccc2)c(C#N)c(-c2ccccc2F)c1C#N [Example 416, N-[3,5-dicyano-4-(2-fluorophenyl)-6-methoxypyridin-2-yl]-2-phenylacetamide] |
| 140 to 144 | COc1nc(NC(=O)NCCO)c(C#N)c(-c2ccccc2F)c1C#N [Example 420, 1-[3,5-dicyano-4-(2-fluorophenyl)-6-methoxypyridin-2-yl]-3-(2-hydroxyethyl)ur ea] |
| 235 to 237 | N#Cc1cc(C#N)c(Oc2ccccc2)nc1N [Example 426] |
| 314 to 315 | N#Cc1c(N)nc(O)c(C#N)c1Cc1ccccc1 [Example 434] |
| 204 to 205 | N#Cc1c(N)nc(OCc2cccnc2)c(C#N)c1Cc1ccccc1 [Example 436, 2-amino-4-benzyl-6-(pyridin-3-ylmethoxy)pyridine-3,5-dicarbonitrile] |
| 188 to 189 | N#Cc1c(N)nc(SCc2ccccc2)c(C#N)c1Cc1ccccc1 [Example 437] |
| 259 to 260 | N#Cc1c(N)nc(SCc2cccnc2)c(C#N)c1Cc1ccccc1 [Example 438, 2-amino-4-benzyl-6-[(pyridin-3-ylmethyl)sulfanyl]pyridine-3,5-dicarbonitrile] |

Second part, the compound before the results:

| SMILES | melting point [°C] |
| --- | --- |
| CSc1nc(N)c(C#N)c(C)c1C#N [Example 75] | 246 to 247 |
| CSc1nc(N)c(C#N)c(-c2ccccc2)c1C#N [Example 76] | 297 |
| CSc1nc(N)c(C#N)c(-c2ccco2)c1C#N [Example 84] | 229 to 230 |
| COc1nc(N)c(C#N)c(-c2cc(F)ccc2F)c1C#N [Example 126, 2-amino-4-(2,5-difluorophenyl)-6-methoxypyridine-3,5-dicarbonitrile] | 201 to 202 |
| CCc1c(C#N)c(N)nc(OC)c1C#N [Example 149] | 160 to 161 |
| COc1nc(N)c(C#N)c(C2CCOC2)c1C#N (centres unmarked) [Example 163] | 205 to 206 |
| COc1nc(N)c(C#N)c(-c2ccc[nH]2)c1C#N [Example 169] | 198 to 199 |
| COc1nc(N)c(C#N)c(-c2c[nH]c3ccccc23)c1C#N [Example 170] | > 300 |
| N#Cc1c(N)nc(Br)c(C#N)c1-c1ccccc1 [Example 178] | > 300 |
| CCOc1nc(N)c(C#N)c(-c2ccccc2)c1C#N [Example 179] | 233 to 234 |
| N#Cc1c(N)nc(Oc2ccccc2)c(C#N)c1-c1ccccc1 [Example 194] | 202 |
| N#Cc1c(N)nc(-n2ccnc2)c(C#N)c1-c1ccccc1 [Example 211] | 256 to 258 |
| N#Cc1c(N)nc(SCc2ccccc2)c(C#N)c1-c1ccccc1 [Example 217] | 212 to 213 |
| COc1nc(OC)c(C#N)c(-c2ccccc2)c1C#N [Example 358] | 157 to 159 |
| CNc1nc(OC)c(C#N)c(-c2ccccc2)c1C#N [Example 360] | 216 to 218 |
| COc1nc(N(C)C)c(C#N)c(-c2ccccc2)c1C#N [Example 361] | 179 to 180 |
| COc1nc(NCCO)c(C#N)c(-c2ccccc2)c1C#N [Example 362, 2-[(2-hydroxyethyl)amino]-6-methoxy-4-phenylpyridine-3,5-dicarbonitrile] | 153 to 155 |
| COC(=O)CNc1nc(OC)c(C#N)c(-c2ccccc2)c1C#N [Example 363, methyl [(3,5-dicyano-6-methoxy-4-phenylpyridin-2-yl)amino]acetate] | 140 to 141 |

Test system: rat's removed bladder specimen
Experiment: Inhibition of the contraction of rat's removed bladder specimen (15 mM K+-induced contraction, organ bath)
Conditions: SD male rat bladder strips, dose giving 50% inhibition of contraction area
Description: Since the inhibitory action is blocked by a known maxi-K channel blocker charybdotoxin or iberiotoxin, it is confirmed that the effect of the compounds of the invention is based on the maxi-K channel opening effect. Thus, the pharmacological effect of the compounds of the invention was confirmed according to the following method.
<Inhibitory Effect in Construction of the Rat's Removed Bladder Specimen>
In this experiment, SD-family male rats (9-13 weeks of age) were used. The rats were killed by bleeding under ether anesthesia, and the bladders were removed. The removed bladders were immediately washed in a Kiebs-Henseleit solution (NaCl 118.4, KCl 4.7, KH2PO4 1.2, MgSO4 1.2, CaCl2 2.5, NaHCO3 25.0, glucose 11.1 [mM], aeration with 95% O2/5% CO2 mixed gas) kept at 37° C., and prepared into rectangular specimens of about 10 mm long and about 2 mm width on a Petri dish filled with the Klebs-Henseleit solution. The respective specimens were ligated at the both ends with a cotton string via a wire hook, and the one end was fixed to an FD pick-up and the other hung down vertically in an organ bath filled with the Klebs-Henseleit solution. After completion of the operation, 1.0 g of static tensile stress was given to the respective slices, which were then allowed to stand for 1.5-2 hours to stabilize. Then, a KCl solution was added to the organ bath so that the final K^+ ion concentration become 15 mM to induce the contraction. Thereafter, the specimens were further allowed to stand for about 1-2 hours to stabilize, and the test was started. The contraction of the smooth muscle was measured isometrically through the FD pick-up, and the output signal was amplified through a strain stress amplifier to continuously record a chart on a pen recorder. At the same time, the respective contraction wave forms to be analyzed were recorded on a personal computer as magnetic data through an analogue/digital signal converter, and the under-area of the contraction was calculated by analytical software. The contraction 5 minutes immediately after the start of the test was regarded as the value before administration of the drug to be tested (100% reference value). The drug to be tested was added into the bath at intervals of 30 minutes, and the contraction for 5 minutes, respectively 25 minutes after the administration, was analyzed. The drug to be tested was administered at a common ratio of 3 or 10 accumulatively. The effect of the drug to be tested was represented by the dose by which 50% inhibition was attained to the value before the administration (100% reference value). Additionally, the wave form of contraction at the highest dose of the drug was recorded, and then a maxi-K channel selective blocker, charybdotoxin or iberiotoxin, was administered so that the final concentration in the organ bath became 100 nM. Thus, the effect of the drug was observed whether it was blocked or not.

| SMILES | pIC50 |
| --- | --- |
| COc1nc(N)c(C#N)c(-c2cccs2)c1C#N [Example 1, 2-amino-6-methoxy-4-(2-thienyl)pyridine-3,5-dicarbo-nitrile] | 6.82 |
